From paper PMC11783601, “Analogue-Sensitive Inhibition of Histone Demethylases Uncovers Member-Specific Function in Ribosomal Protein Synthesis” (Journal of the American Chemical Society, 2025)

Tested on: nascent protein synthesis in HEK293T cells
Test: BONCAT: confocal imaging of TAMRA alkyne ligated nascent proteins in fixed cells
Format: cell-based, human
Experimental: To visualize the nascent proteins in intact cells, we performed click ligation on fixed cells with TAMRA alkyne, followed by confocal imaging. Treatment with AHA led to a robust fluorescence signal primarily in the cytoplasm compared to untreated cells indicating cytoplasmic protein synthesis (Figure 5D,E). […]
and 6 ug of Thermo Turbofect (FERR0531). KDM4A siRNA was transfected into cells using 10nM siRNA (Thermo 4392420) with 1:2 ug amount of Thermo Turbofect (FERR0531). Cells were washed 4 hours later and fresh DMEM was applied. The next day, the cells were treated with inhibitor (L-leucine NOG) and grown for 24 hours. […] The lysate was quantified with Bradford dye and 40 ug of lysate was incubated with 1 mM Tris[(1-benzyl-1H-1,2,3-triazol-4-yl)methyl]amine (TBTA […]
For analysis of AHA incorporation measured by fixed cell imaging, HEK293-T cells (ATCC CRL-1573) were grown in a 24 well plate (Corning) on poly-D-lysine (Gibco A3890401) treated glass coverslips (ThermoScientific 12-545-81P) overnight and transfected the next day with 500 ng KDM4A WT/F185A or Empty Vector (EV) equivalent using 1:2 ug of Thermo Turbofect (FERR0531). […]
(Sigma B2883-25MG) for 30 seconds, washed with PBS and finally adhered to a slide with gelvatol. […] Images were analyzed on ImageJ open-source software and NIS elements software. […]

SMILES | TAMRA signal of nascent proteins (confocal imaging) (fixed HEK293T cells overexpressing F185A, to the level of cells expressing control vector) | TAMRA signal of nascent proteins (confocal imaging) (fixed HEK293T cells, endogenous KDM4A, compared with KDM4A silencing)
CCCCCCCCOC(=O)C(=O)NC(CC(C)C)C(=O)O [6A, L-Leu octyl-ester NOG] | subsequently inhibited | 
CCCCCCCCOC(=O)c1ccc(O)c2ncccc12 [n-octyl IOX1] |  | phenocopied
